Laboratory results reported in US10017495B2, “Therapeutically active compounds and their methods of use” (AGIOS PHARMACEUTICALS, INC, priority 2013, dated 2018).

Assays:
[1] = tested on: U87MG pLVX-IDH2 R140Q-neo cells; experiment: U87MG pLVX-IDH2 R140Q-Neo cell based assay (2-HG in media by LC-MS); settings: 48 hours; for IC50: Homo sapiens, U-87 MG
Protocol: U87MG pLVX-IDH2 R140Q-Neo Cell Based Assay.
U87MG pLVX-IDH2 R140Q-neo cells are grown in T125 flasks in DMEM containing 10% FBS, 1× penicillin/streptomycin and 500 μg/mL G418. They are harvested by trypsin and seeded into 96 well white bottom plates at a density of 5000 cell/well in 100 μl/well in DMEM with 10% FBS. No cells are plated in columns 1 and 12. Cells are incubated overnight at 37° C. in 5% CO2. The next day compounds are made up at 2× concentration and 100 ul are added to each cell well. The final concentration of DMSO is 0.2% and the DMSO control wells are plated in row G. The plates are then placed in the incubator for 48 hours. At 48 hours, 100 ul of media is removed from each well and analyzed by LC-MS for 2-HG concentrations. The cell plate is placed back in the incubator for another 24 hours. At 72 hours post compound addition, 10 mL/plate of Promega Cell Titer Glo reagent is thawed and mixed. The cell plate is removed from the incubator and allowed to equilibrate to room temperature. Then 100 ul of reagent is added to each well of media. The cell plate is then placed on an orbital shaker for 10 minutes and then allowed to sit at room temperature for 20 minutes. The plate is then read for luminescence with an integration time of 500 ms to determine compound effects on growth inhibition.

IDH2 R140Q = target: T1, IDH2 R140Q (Homo sapiens, UniProt P48735, R140Q); experiment: IDH2 R140Q enzymatic assay (cofactor depletion assay, diaphorase/resazurin readout); assay type: biochemical; settings: read-out: Enz R140Q
T1 sequence (P48735 40-452 R140Q): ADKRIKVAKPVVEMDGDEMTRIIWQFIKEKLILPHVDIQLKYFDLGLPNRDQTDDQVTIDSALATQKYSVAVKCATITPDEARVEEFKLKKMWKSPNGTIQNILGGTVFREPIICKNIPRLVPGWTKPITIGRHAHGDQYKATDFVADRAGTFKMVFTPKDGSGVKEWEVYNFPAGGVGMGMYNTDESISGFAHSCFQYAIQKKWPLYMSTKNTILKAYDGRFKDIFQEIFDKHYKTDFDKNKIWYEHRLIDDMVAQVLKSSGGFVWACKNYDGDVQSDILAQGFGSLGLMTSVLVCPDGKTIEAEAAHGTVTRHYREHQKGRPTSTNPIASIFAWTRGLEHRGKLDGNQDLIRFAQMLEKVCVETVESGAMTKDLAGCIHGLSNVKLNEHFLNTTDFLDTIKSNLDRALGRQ
Protocol: [The source words this procedure for another variant and says it was used here with some conditions changed.] Compounds are assayed for IDH2 R172K inhibitory activity through a cofactor depletion assay. […] The reaction is terminated by the addition of a second enzyme, diaphorase, and a corresponding substrate, resazurin. Diaphorase reduces resazurin to the highly fluorescent resorufin with the concomitant oxidation of NADPH to NADP, both halting the IDH2 reaction by depleting the available cofactor pool and facilitating quantitation of the amount of cofactor remaining after a specific time period through quantitative production of an easily detected fluorophore.
The test compound is then incubated for one hour at room temperature with the enzyme; before starting the IDH2 reaction with the addition of 10 μl of substrate mix containing 50 μM NADPH and 6.3 mM α-KG in the buffer described above. After a further one hour of incubation at room temperature, the reaction is halted and the remaining NADPH measured through conversion of resazurin to resorufin by the addition of 25 μl Stop Mix (36 μg/ml diaphorase enzyme and 60 μM resazurin; in buffer). After one minute of incubation the plate is read on a plate reader at Ex544/Em590.

IC50 [1] [nM] | IC50 (IDH2 R140Q) [nM] | SMILES | Cell R140Q [1]
< 100 | < 100 | CC(C)Nc1nc(Nc2ccnc(C(F)(F)F)c2)nc(C2=CCCCC2)n1 [Compound 1, 6-(cyclohex-1-en-1-yl)-N2-isopropyl-N4-(2-(trifluoromethyl)pyridin-4-yl)-1,3,5-triazine-2,4-diamine] | 
< 100 | < 100 | CC(C)Nc1nc(Nc2ccnc(C(F)(F)F)c2)nc(C2CCCCC2)n1 [Compound 2] | 
100 to 1000 | 100 to 1000 | CC(C)Nc1nc(Nc2ccnc(C(F)(F)F)c2)nc(C(C)(C)C)n1 [Compound 3, 6-(tert-butyl)-N2-isopropyl-N4-(2-(trifluoromethyl)pyridin-4-yl)-1,3,5-triazine-2,4-diamine] | 
100 to 1000 | < 100 | CC(C)Nc1nc(Nc2ccnc(C(F)(F)F)c2)nc(C2CCCC2)n1 [Compound 4, 6-cyclopentyl-N2-isopropyl-N4-(2-(trifluoromethyl)pyridin-4-yl)-1,3,5-triazine-2,4-diamine] | 
100 to 1000 | < 100 | CC(C)Nc1nc(Nc2ccnc(C(F)(F)F)c2)nc(C2CCC2)n1 [Compound 5, 6-cyclobutyl-N2-isopropyl-N4-(2-(trifluoromethyl)pyridin-4-yl)-1,3,5-triazine-2,4-diamine] | 
< 100 | 100 to 1000 | CC(C)Nc1nc(Nc2ccnc(C(F)(F)F)c2)nc(C2=CC(=O)CCC2)n1 [Compound 6, 3-(4-(isopropylamino)-6-((2-(trifluoromethyl)pyridin-4-yl)amino)-1,3,5-triazin-2-yl)cyclohex-2-enone] | 
< 100 | < 100 | CC(C)Nc1nc(Nc2ccnc(C(F)(F)F)c2)nc(C2=CC(O)CCC2)n1 (stereo not shown) [Compound 7, 3-(4-(isopropylamino)-6-((2-(trifluoromethyl)pyridin-4-yl)amino)-1,3,5-triazin-2-yl)cyclohex-2-enol] | 
< 100 | 100 to 1000 | CC(C)Nc1nc(Nc2ccnc(C(F)(F)F)c2)nc(C2CCCC(=O)C2)n1 (stereo not shown) [Compound 8, 3-(4-(isopropylamino)-6-((2-(trifluoro-methyl)pyridin-4-yl)amino)-1,3,5-triazin-2-yl)cyclohexanone] | 
100 to 1000 | < 100 | CC1CCCC(c2nc(Nc3ccnc(C(F)(F)F)c3)nc(NC(C)C)n2)C1 (stereo not shown) [Compound 9] | 
 | 100 to 1000 | CC1CC(C)CC(c2nc(Nc3ccnc(C(F)(F)F)c3)nc(NC(C)C)n2)C1 (stereo not shown) [Compound 10] | 
< 100 | < 100 | CC(C)Nc1nc(Nc2ccnc(C(F)(F)F)c2)nc(C2CCCC(O)C2)n1 (stereo not shown) [Compound 11, 3-(4-(isopropylamino)-6-((2-(trifluoromethyl)pyridin-4-yl)amino)-1,3,5-triazin-2-yl)cyclohexanol] | 
100 to 1000 | < 100 | CC(C)Nc1nc(Nc2ccnc(C(F)(F)F)c2)nc(C2=CC(=O)NCC2)n1 [Compound 12] | 
 | 1000 to 10000 | CC(C)Nc1nc(Nc2ccnc(C(F)(F)F)c2)nc(C2CCNC(=O)C2)n1 (stereo not shown) [Compound 13] | No fit
